How the values were obtained:
[1] = Single-dose pharmacokinetics, Cynomolgus monkey; format: in vivo, male); settings: free base; for AUC(0-t): read-out: AUC0→24
Procedure: (§1) The pharmacokinetic (PK) parameters of Compound (10b) (freebase) were determined following single intravenous (IV) and oral (PO) administration in female CD-1 mouse, female C57BL/6 mouse (PO only), male Sprague Dawley rat, male Beagle dog, and male Cynomolgus monkey. Additional evaluation of the PK properties of Compound (10b) was obtained following single dose PO administration in female CD-1 mouse, male Sprague Dawley rat and male Beagle dog over a dose range spanning 10 to 300 mg/kg (mouse and rat) and 1 to 100 mg/kg (dog). The intravenous dose solutions were prepared in 20% DMSO-60% PEG400-20% water and the oral dose solutions as suspensions in 0.5% methylcellulose in water, unless otherwise noted. Plasma concentration profiles were generated from serial sampling in individual animals up to 24 hours post dose, except for the studies in mice where composite sampling methods were used (i.e. 3 sampling times per mouse; 9 mice per group). […] Exposures increased with increasing dose level across species, in a dose-proportional manner in mouse and dog, and in a greater than dose-proportional manner in rat (80× increase in AUC with a 30× increase in dosage).

[2] = target: T1, Large tumor suppressor kinase 1 (LATS1) (Homo sapiens, UniProt O95835); assay: KINOMEscan competition binding; settings: read-out: ligand binding, % control
T1 construct: purchased DiscoverX (KINOMEscan platform)
Procedure: (§2) Activity of Compound (10b) (1 μM) was assessed against a panel of 419 human kinases (including a set of disease-relevant mutant variants). Assays were conducted using the KINOMEscan™ platform from DiscoverX which measures compound interaction with kinases using active site-directed competition binding assays. Displacement of ligand binding to the kinase by <35% of the control value is considered significant. Of the 419 kinases tested, only 4 kinases reached this level of displacement: Protein kinase C eta (PRKCH), 34% control; Large tumor suppressor kinase 1 (LATS1), 32% control; General control nonderepressible 2 kinase (GCN2), 21% control; and Hematopoietic Progenitor Kinase 1 (HPK1), 4.4% control.

[3] = target: T2, Protein kinase C eta (PRKCH) (Homo sapiens, UniProt P24723); assay: KINOMEscan competition binding; settings: read-out: ligand binding, % control
T2 construct: purchased DiscoverX (KINOMEscan platform)
Procedure: as §2

NCI-H358 = assay: DUSP6 mRNA levels (qPCR); format: cell-based; settings: Homo sapiens; NCI-H358, KRAS^G12C
Procedure: (§3) The potency of Compound (10b) in a panel of human tumor cell lines with active MAPK signaling was assessed. Cell viability in a 3D culture system was assessed by measuring CellTiter-Glo (CTG) luminescence following 8 days of treatment with nine concentrations of Compound (10b). MAPK pathway signaling was assessed by measuring pERK protein levels and DUSP6 mRNA levels by homogeneous time resolved fluorescence (HTRF) and quantitative polymerase chain reaction (qPCR), respectively. […] These viability effects correlated with pERK inhibition (Table 2, FIG. 6B) and DUSP6 inhibition (FIG. 6C).

KYSE-520 = assay: DUSP6 mRNA levels (qPCR); format: cell-based; settings: Homo sapiens; KYSE-520, EGFR^amp
Procedure: as §3

[4] = system: General control nonderepressible 2 kinase (GCN2); assay: KINOMEscan competition binding; set-up: species or system human; settings: 1 μM
Procedure: as §2

[5] = Single-dose pharmacokinetics, Sprague Dawley rat; format: in vivo, male); settings: for AUC(0-t): read-out: AUC0→24
Procedure: as §1

[6] = system: panel of 73 receptors and ion channels and 12 additional enzymes; assay: Eurofins Cerep off-target panel; settings: 10 μM
Procedure: In addition to the kinase and phosphatase screens, Compound (10b) (10 μM) was tested against a panel of 73 receptors and ion channels and 12 additional enzymes using the Eurofins Cerep platform. In this screen, inhibition or stimulation of >50% is considered to be a significant effect.

[7] = system: panel of 14 full-length human phosphatases; assay: Eurofins Panlabs spectrofluorimetric phosphatase panel; format: biochemical; settings: 10 μM
Procedure: The activity of Compound (10b) was also assessed against a panel of 14 full-length human phosphatases using spectrofluorimetric biochemical assays. These assays were conducted using the Eurofins Panlabs platform.

[8] = male, cynomolgus monkey, plasma, IV 0.3 mg/kg
[9] = male, cynomolgus monkey, plasma, oral 1 mg/kg
[10] = male, Sprague Dawley, rat, plasma, IV 0.3 mg/kg, free base
[11] = male, Sprague Dawley, rat, plasma, oral 10 mg/kg, free base

T2 sequence (P24723 whole entry): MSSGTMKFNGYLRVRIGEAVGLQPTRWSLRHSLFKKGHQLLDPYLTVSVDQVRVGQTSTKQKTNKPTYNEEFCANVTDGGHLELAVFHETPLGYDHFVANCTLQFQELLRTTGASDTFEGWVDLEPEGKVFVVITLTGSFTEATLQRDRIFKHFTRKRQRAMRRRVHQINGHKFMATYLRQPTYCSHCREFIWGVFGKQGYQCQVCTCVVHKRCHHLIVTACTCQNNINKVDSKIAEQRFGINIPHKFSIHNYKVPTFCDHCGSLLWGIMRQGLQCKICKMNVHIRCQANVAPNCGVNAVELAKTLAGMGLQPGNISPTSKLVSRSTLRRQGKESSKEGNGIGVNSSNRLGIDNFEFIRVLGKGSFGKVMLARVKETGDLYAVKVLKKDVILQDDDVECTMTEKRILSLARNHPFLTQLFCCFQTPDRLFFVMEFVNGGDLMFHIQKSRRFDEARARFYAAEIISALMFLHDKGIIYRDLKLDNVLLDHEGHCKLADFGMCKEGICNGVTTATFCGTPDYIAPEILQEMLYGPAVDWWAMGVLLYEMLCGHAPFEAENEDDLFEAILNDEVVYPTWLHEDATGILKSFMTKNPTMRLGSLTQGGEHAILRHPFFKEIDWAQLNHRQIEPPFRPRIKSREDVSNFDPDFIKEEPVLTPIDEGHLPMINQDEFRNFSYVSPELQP
T1 sequence (O95835 whole entry): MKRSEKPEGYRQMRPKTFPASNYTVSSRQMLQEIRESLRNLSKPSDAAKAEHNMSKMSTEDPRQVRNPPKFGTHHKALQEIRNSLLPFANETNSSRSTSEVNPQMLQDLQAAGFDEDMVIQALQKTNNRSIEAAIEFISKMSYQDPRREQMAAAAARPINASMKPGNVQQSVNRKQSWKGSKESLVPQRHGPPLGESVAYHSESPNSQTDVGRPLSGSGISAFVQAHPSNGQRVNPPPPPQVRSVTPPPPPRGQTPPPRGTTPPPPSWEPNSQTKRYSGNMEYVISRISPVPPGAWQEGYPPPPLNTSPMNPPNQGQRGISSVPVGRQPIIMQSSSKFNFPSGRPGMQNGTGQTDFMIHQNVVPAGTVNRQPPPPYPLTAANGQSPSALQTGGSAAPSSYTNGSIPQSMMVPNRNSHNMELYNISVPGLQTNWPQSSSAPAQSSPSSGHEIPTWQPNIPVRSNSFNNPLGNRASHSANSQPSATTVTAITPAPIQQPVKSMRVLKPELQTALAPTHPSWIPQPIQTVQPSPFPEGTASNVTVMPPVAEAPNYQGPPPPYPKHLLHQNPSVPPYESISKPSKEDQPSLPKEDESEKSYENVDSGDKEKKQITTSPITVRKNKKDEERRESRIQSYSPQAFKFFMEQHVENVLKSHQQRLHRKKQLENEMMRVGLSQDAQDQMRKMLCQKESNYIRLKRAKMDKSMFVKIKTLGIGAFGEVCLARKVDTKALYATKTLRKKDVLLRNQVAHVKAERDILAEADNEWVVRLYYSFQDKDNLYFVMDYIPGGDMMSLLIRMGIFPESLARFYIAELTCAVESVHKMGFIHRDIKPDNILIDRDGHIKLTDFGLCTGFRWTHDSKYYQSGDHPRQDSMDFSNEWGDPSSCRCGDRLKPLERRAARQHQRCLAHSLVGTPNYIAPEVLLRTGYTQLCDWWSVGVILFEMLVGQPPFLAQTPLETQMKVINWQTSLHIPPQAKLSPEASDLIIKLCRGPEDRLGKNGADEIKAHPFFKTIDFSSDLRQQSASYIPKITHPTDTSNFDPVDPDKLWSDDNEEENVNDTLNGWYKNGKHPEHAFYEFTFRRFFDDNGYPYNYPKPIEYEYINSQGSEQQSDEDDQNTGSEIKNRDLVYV

Cc1c(N2CCC3(CC2)CO[C@@H](C)[C@H]3N)nc(C)n(-c2cccc(Cl)c2Cl)c1=O (atropisomer, axis not shown; (Ra)) [Compound (10b), 6-((3S,4S)-4-amino-3-methyl-2-oxa-8-azaspiro[4.5]decan-8-yl)-3-(Ra)-(2,3-dichlorophenyl)-2,5-dimethylpyrimidin-4(3H)-one]
half-life [1, 8]: 6.44 h | AUC(0-t) [1, 8]: 1.82 µM·h | clearance ([1]; male, cynomolgus monkey, plasma, IV 0.3 mg/kg, read-out: Clp (converted)): 6 mL/min/kg | Vd ([1]; male, cynomolgus monkey, plasma, IV 0.3 mg/kg, read-out: Vdss): 2.74 L/kg | Cmax [1, 9]: 430 nM | Tmax [1, 9]: 2.67 h | AUC(0-t) [1, 9]: 4.52 µM·h | F ([1]; oral 1 mg/kg): 52.3% | remaining binding at 1 µM [2]: 32% | remaining ligand binding at 1 µM [3]: 34% | IC50 (NCI-H358): 820 nM | IC50 (KYSE-520): 60 nM | ligand binding, % control [4]: 21 % control | half-life [5, 10]: 9.18 h | AUC(0-t) [5, 10]: 3.27 µM·h | clearance ([5]; male, Sprague Dawley, rat, plasma, IV 0.3 mg/kg, free base, read-out: Clp (converted)): 10.2 mL/min/kg | Vd ([5]; male, Sprague Dawley, rat, plasma, IV 0.3 mg/kg, free base, read-out: Vdss): 6.05 L/kg | Cmax [5, 11]: 3050 nM | AUC(0-t) [5, 11]: 19.1 µM·h | Tmax ([5]; male, Sprague Dawley, rat, plasma, oral 10 mg/kg, free base, read-out: Tmax (mean)): 0.92 h | Tmax ([5]; male, Sprague Dawley, rat, plasma, oral 300 mg/kg, read-out: mean Tmax): ≤ 8 h | F ([5]; oral 10 mg/kg, free base): 51.2% | increase in AUC ([5]; oral, with a 30× increase in dosage (10 to 300 mg/kg)): 80 × | inhibition or stimulation of >50% [6]: No effects of this magnitude were observed | inhibition of phosphatases [7]: No significant inhibition

— patent US20250213563A1, “SUBSTITUTED PYRIMIDIN-4(3H)-ONES FOR USE IN TREATING CANCER” (NAVIRE PHARMA, INC., priority 2021, published 2025)
